Experimental data from PMC6066355, “Probing the binding site of novel selective positive allosteric modulators at the M1 muscarinic acetylcholine receptor” (Biochemical Pharmacology, 2018).
Where a chain is given by its changes, count along the chain named.

Experiments:
Test in all cases: IP-One (IP1) accumulation assay, FlpIn CHO cells
Type in all cases: cell-based
Y179^ECL2A M1 mAChR = biological target: T1, Y179^ECL2A M1 mAChR (Homo sapiens, UniProt P11229, Y179A)
T1 construct: expressed in transfected cells
T1 sequence (P11229 1-460 Y179A): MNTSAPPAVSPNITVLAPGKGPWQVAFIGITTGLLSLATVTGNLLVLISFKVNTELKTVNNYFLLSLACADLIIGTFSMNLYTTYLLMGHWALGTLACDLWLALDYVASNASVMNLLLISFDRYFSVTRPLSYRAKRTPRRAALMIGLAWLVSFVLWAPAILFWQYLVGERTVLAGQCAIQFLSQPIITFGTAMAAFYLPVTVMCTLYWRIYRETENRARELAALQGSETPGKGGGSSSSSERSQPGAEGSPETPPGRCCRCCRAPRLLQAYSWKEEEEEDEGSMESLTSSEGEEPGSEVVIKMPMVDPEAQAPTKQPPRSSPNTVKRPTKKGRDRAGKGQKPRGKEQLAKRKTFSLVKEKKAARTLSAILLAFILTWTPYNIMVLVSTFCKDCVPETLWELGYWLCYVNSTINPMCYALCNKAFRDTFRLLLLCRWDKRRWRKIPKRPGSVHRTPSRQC
Experimental: (§1) The IP-One assay kit (Cisbio) was used for the direct quantitative measurement of myo-Inositol 1 phosphate (IP1). Cells were seeded at 25,000 per well into 96-well transparent cell culture plates and incubated overnight at 37 °C. […] Cells were then lysed with IP1 lysis buffer (50 mM HEPES pH 7.0, 15 mM KF, 1.5% V/V Triton-X-100, 3% V/V FBS, 0.2% W/V BSA), and IP1 levels were measured by incubation of cell lysates with FRET reagents (the cryptate-labeled anti-IP1 antibody and the d2-labeled IP1 analogue) for 1 h at 37 °C. […] Signals were expressed as the FRET ratio: F = (fluorescence665 nm/fluorescence590 nm) × 10^4, and normalized to the response to maximal ACh concentration (100 µM).
(§2) (Eq. (2)) was used:(2) Y=Basal+Em-Basal/1+KA+A/τA where Em is the maximal possible system response and Basal is the response in the absence of agonist. [A] denotes the concentration of ligand, and KA represents its equilibrium dissociation constants. τ denotes the intrinsic efficacy of the ligand, which incorporates the total receptor density and the efficiency of stimulus-response coupling.
(§3) Functional interaction studies between orthosteric agonists and allosteric modulators in IP1 assays were analysed using the following operational model of allosterism and agonism (Eq. (3)):(3) E=Basal+Em-BasalAKB+αβB+τBBEC50/EC50KB+B+AKB+αβB+τBBEC50 where Em is the maximal possible system response, and Basal is the response in the absence of agonist. KB is the equilibrium dissociation constant of allosteric ligand, and EC50 is the concentration of orthosteric agonist required to achieve half maximal response. [A] and [B] denote concentrations of orthosteric and allosteric ligands, respectively. α and β denote allosteric effects on orthosteric ligand binding affinity and efficacy, respectively, and τB denotes the efficacy of allosteric ligand. This model assumes that ACh is a full agonist at the receptor in both the absence/presence of modulator and/or there is no efficacy modulation (i.e., β = 1).

F77^2.56I M1 mAChR = biological target: T2, F77^2.56I M1 mAChR (Homo sapiens, UniProt P11229, F77I); settings: for LogτB (logarithm of functional efficacy of the modulator): corrected for receptor expression levels relative to WT; for τB (functional efficacy of the modulator, antilog in brackets): corrected for receptor expression relative to WT; for Logαβ (logarithm of functional cooperativity between ACh and modulator): pKB constrained to Table 1, β constrained to 1
T2 construct: expressed in transfected cells
T2 sequence (P11229 1-460 F77I): T1 sequence (P11229 1-460 Y179A) with F77I, A179Y
Experimental: as §1, §2, §3

W400^7.35A M1 mAChR = biological target: T3, W400^7.35A M1 mAChR (Homo sapiens, UniProt P11229, W400A)
T3 construct: expressed in transfected cells
T3 sequence (P11229 1-460 W400A): T1 sequence (P11229 1-460 Y179A) with A179Y, W400A
Experimental: as §1, §2, §3

Y82^2.61A M1 mAChR = biological target: T4, Y82^2.61A M1 mAChR (Homo sapiens, UniProt P11229, Y82A); settings: for LogτB (logarithm of functional efficacy of the modulator): corrected for receptor expression levels relative to WT; for τB (functional efficacy of the modulator, antilog in brackets): corrected for receptor expression relative to WT; for Logαβ (logarithm of functional cooperativity between ACh and modulator): pKB constrained to Table 1, β constrained to 1
T4 construct: expressed in transfected cells
T4 sequence (P11229 1-460 Y82A): T1 sequence (P11229 1-460 Y179A) with Y82A, A179Y
Experimental: as §1, §2, §3

With `Cn1cc(-c2ccc(COc3ccccc3-c3cc(=O)n(C4CCCCC4O)cn3)cc2)cn1` (stereo not drawn) [MIPS1780, 3-(2-hydroxycyclohexyl)-6-(2-((4-(1-methyl-1H-pyrazol-4-yl)-benzyl)oxy)phenyl)pyrimidin-4(3H)-one] the “Modulation of ACh-stimulated IP1 accumulation” value (“Modulation” for short) (Y179^ECL2A M1 mAChR) was “abolished”, the “αβ (functional cooperativity with ACh, antilog in brackets)” value (F77^2.56I M1 mAChR) was 63 and the “LogτB (logarithm of functional efficacy of the modulator)” value (“LogτB” for short) (F77^2.56I M1 mAChR) was 1.52 ± 0.06. The “τB (functional efficacy of the modulator, antilog in brackets)” value (F77^2.56I M1 mAChR) was 33, the “Logαβ (logarithm of functional cooperativity between ACh and modulator)” value (shortened to “Logαβ”) (F77^2.56I M1 mAChR) was 1.80 ± 0.15 and the “Modulation” value (W400^7.35A M1 mAChR) was “abolished”. The “αβ (functional cooperativity with ACh, antilog in brackets)” value (Y82^2.61A M1 mAChR) was 91, the “LogτB” value (Y82^2.61A M1 mAChR) was 1.85 ± 0.12 and the “τB (functional efficacy of the modulator, antilog in brackets)” value (Y82^2.61A M1 mAChR) was 71. The “Logαβ” value (Y82^2.61A M1 mAChR) was 1.96 ± 0.14.

With `Cc1cnc(C(=O)N[C@H]2CCOC[C@@H]2O)cc1Cc1ccc(-c2cscn2)cc1` [PF-06767832, N-((3R,4S)-3-hydroxytetrahydro-2H-pyran-4-yl)-5-methyl-4-(4-(thiazol-4-yl)benzyl)pyridine-2-carboxamide] the “Modulation” value (Y179^ECL2A M1 mAChR) was “abolished”, the “αβ (functional cooperativity with ACh, antilog in brackets)” value (F77^2.56I M1 mAChR) was 112 and the “LogτB” value (F77^2.56I M1 mAChR) was 1.51 ± 0.07. The “τB (functional efficacy of the modulator, antilog in brackets)” value (F77^2.56I M1 mAChR) was 32, the “Logαβ” value (F77^2.56I M1 mAChR) was 2.05 ± 0.13 and the “Modulation” value (W400^7.35A M1 mAChR) was “abolished”. The “αβ (functional cooperativity with ACh, antilog in brackets)” value (Y82^2.61A M1 mAChR) was 46, the “LogτB” value (Y82^2.61A M1 mAChR) was 0.95 ± 0.12 and the “τB (functional efficacy of the modulator, antilog in brackets)” value (Y82^2.61A M1 mAChR) was 9. The “Logαβ” value (Y82^2.61A M1 mAChR) was 1.66 ± 0.12.

With `Cn1cc(-c2ccc(Cn3cc(C(=O)N[C@H]4CCCC[C@@H]4O)c4c(F)cc(F)cc43)cn2)cn1` [VU6004256, 4,6-difluoro-N-(1S,2S)-2-hydroxycyclohexyl-1-((6-(1-methyl-1H-pyrazol-4-yl)pyridine-3-yl)methyl)-1H-indole-3-carboxamide] the “Modulation” value (Y179^ECL2A M1 mAChR) was “abolished”, the “αβ (functional cooperativity with ACh, antilog in brackets)” value (F77^2.56I M1 mAChR) was 51 and the “LogτB” value (F77^2.56I M1 mAChR) was 1.43 ± 0.06. The “τB (functional efficacy of the modulator, antilog in brackets)” value (F77^2.56I M1 mAChR) was 27, the “Logαβ” value (F77^2.56I M1 mAChR) was 1.71 ± 0.15 and the “Modulation” value (W400^7.35A M1 mAChR) was “abolished”. The “αβ (functional cooperativity with ACh, antilog in brackets)” value (Y82^2.61A M1 mAChR) was 19, the “LogτB” value (Y82^2.61A M1 mAChR) was 0.50 ± 0.10 and the “τB (functional efficacy of the modulator, antilog in brackets)” value (Y82^2.61A M1 mAChR) was 3. For the same molecule, the “Logαβ” value (Y82^2.61A M1 mAChR) was 1.29 ± 0.10.
